Results: ChEMBL document CHEMBL1201862, “PubChem BioAssay data set” (2004)
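Cells were grown in 96-well plates and exposed to each compound for 48 hours at five concentrations; endpoints were interpolated linearly between bracketing concentrations, or set to the highest concentration if not reached. GI50 = concentration required for 50% inhibition of growth.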 Calls of active or inactive are those of the source. Rule as the data show it: active = GI50 up to about 1.1 µM and inactive = higher. Numbered stars: 1 amine (or outer) side, 2 acyl side, 3 side chain; on linkers, the order of the positions; unused ones are H or OH. Square brackets hold non-standard residues; d marks the D form. Peptide text beside a SMILES is read from it. * marks the point of attachment. X30 = CC(=O)N(C)SCC(N[*:1])C(=O)[*:2]; Cbz = O=C(OCc1ccccc1)*; Bn = c1ccc(C*)cc1

Key:
Assay in all cases: NCI tumour cell line growth inhibition, 48 h
OVCAR-8 = system: OVCAR-8
MDA-N = system: MDA-N
SF-268 = system: SF-268
A549 = system: A549
OVCAR-4 = system: OVCAR-4
BT-549 = system: BT-549
NCI/ADR-RES = system: NCI/ADR-RES
A498 = system: A498
MDA-MB-435 = system: MDA-MB-435
UACC-257 = system: UACC-257
SK-OV-3 = system: SK-OV-3
CCRF-CEM = system: CCRF-CEM
NCI-H522 = system: NCI-H522
Hs-578T = system: Hs-578T
UACC-62 = system: UACC-62
SNB-19 = system: SNB-19
HOP-62 = system: HOP-62
DU-145 = system: DU-145
IGROV-1 = system: IGROV-1
MDA-MB-231 = system: MDA-MB-231

Measured: GI50

COc1cc(C(=O)N(Cc2cccnc2)C(=S)N(Cc2cccnc2)C(=O)c2cc(OC)c(OC)c(OC)c2)cc(OC)c1OC
inactive: OVCAR-8 28.7 µM | MDA-N 36 µM | SF-268 40.4 µM | A549 > 100 µM | OVCAR-4 17.8 µM | BT-549 28.5 µM | NCI/ADR-RES > 100 µM | A498 23.2 µM | MDA-MB-435 31 µM | UACC-257 70 µM | SK-OV-3 > 100 µM | CCRF-CEM 30.3 µM | NCI-H522 23.9 µM | Hs-578T > 100 µM | UACC-62 31.6 µM | SNB-19 > 100 µM | HOP-62 37.5 µM | DU-145 52.2 µM

CCOC(=O)C(=O)C(/C(=N/N(C)C)C(=O)Nc1ccc(C)cc1C)c1nc2ccccc2nc1O (centres undefined)
inactive: OVCAR-8 > 100 µM | MDA-N > 100 µM | SF-268 > 100 µM | A549 > 100 µM | OVCAR-4 > 100 µM | BT-549 > 100 µM | NCI/ADR-RES > 100 µM | A498 > 100 µM | MDA-MB-435 > 100 µM | UACC-257 > 100 µM | SK-OV-3 > 100 µM | CCRF-CEM > 100 µM | NCI-H522 > 100 µM | Hs-578T > 100 µM | UACC-62 > 100 µM | SNB-19 > 100 µM | IGROV-1 > 100 µM | MDA-MB-231 > 100 µM | HOP-62 > 100 µM

CCOC(=O)c1c(N)sc2c1C(C)(C(=O)OCC)CC2 (centres undefined)
inactive: OVCAR-8 > 100 µM | MDA-N > 100 µM | A549 63.1 µM | BT-549 > 100 µM | A498 18.2 µM | UACC-257 > 100 µM | Hs-578T 78.7 µM | UACC-62 > 100 µM | SNB-19 > 100 µM | IGROV-1 > 100 µM | MDA-MB-231 > 100 µM | HOP-62 > 100 µM

CN(C)CCNc1ccc(NCC[N+](C)(C)Cc2ccc([N+](=O)[O-])cc2)c2c1C(=O)c1c(O)ccc(O)c1C2=O
inactive: OVCAR-8 > 100 µM | MDA-N 20.7 µM | SF-268 19.8 µM | OVCAR-4 > 100 µM | BT-549 18.8 µM | NCI/ADR-RES > 100 µM | A498 > 100 µM | MDA-MB-435 35.2 µM | CCRF-CEM 11.5 µM | Hs-578T 28.9 µM | UACC-62 31.6 µM | SNB-19 > 100 µM | IGROV-1 40.3 µM | MDA-MB-231 43.2 µM | HOP-62 79.3 µM | DU-145 30.1 µM

O=C(O)c1cccc(Nc2c(C(=O)O)cccc2[N+](=O)[O-])c1
inactive: OVCAR-8 > 100 µM | MDA-N > 100 µM | A549 > 100 µM | OVCAR-4 > 100 µM | BT-549 > 100 µM | NCI/ADR-RES > 100 µM | A498 > 100 µM | UACC-257 > 100 µM | SK-OV-3 > 100 µM | CCRF-CEM > 100 µM | NCI-H522 > 100 µM | Hs-578T > 100 µM | UACC-62 > 100 µM | SNB-19 > 100 µM | IGROV-1 > 100 µM | MDA-MB-231 > 100 µM | HOP-62 > 100 µM | DU-145 > 100 µM

c1csc(-c2ccc(-c3ccsc3)s2)c1
inactive: OVCAR-8 > 100 µM | MDA-N > 100 µM | SF-268 > 100 µM | A549 > 100 µM | OVCAR-4 > 100 µM | BT-549 > 100 µM | NCI/ADR-RES > 100 µM | A498 > 100 µM | MDA-MB-435 > 100 µM | UACC-257 > 100 µM | SK-OV-3 > 100 µM | CCRF-CEM > 100 µM | NCI-H522 > 100 µM | Hs-578T 98.4 µM | UACC-62 > 100 µM | SNB-19 > 100 µM | IGROV-1 > 100 µM | MDA-MB-231 > 100 µM | HOP-62 > 100 µM

CC1=CC[C@@]2(CO)[C@@H]([C@@H]1C)[C@H]1CC[C@@H]3[C@@]4(C)CC[C@H](O)C(C)(C)[C@@H]4CC[C@@]3(C)[C@]1(C)C[C@@H]2O
inactive: OVCAR-8 14.3 µM | MDA-N 81.7 µM | SF-268 21 µM | A549 15.9 µM | OVCAR-4 20.8 µM | BT-549 20.3 µM | NCI/ADR-RES 27.1 µM | A498 24 µM | MDA-MB-435 40.2 µM | UACC-257 27.2 µM | SK-OV-3 14.4 µM | CCRF-CEM 41.1 µM | NCI-H522 8.91 µM | Hs-578T 15.8 µM | UACC-62 20.9 µM | SNB-19 35.1 µM | IGROV-1 29.3 µM | HOP-62 14.3 µM | DU-145 23 µM

COc1ccc(/C=N/NC(=S)Nc2cc(C)ccc2OC)cc1
inactive: OVCAR-8 37.6 µM | MDA-N 21.1 µM | SF-268 48.9 µM | A549 45.1 µM | OVCAR-4 23.8 µM | BT-549 26.6 µM | NCI/ADR-RES 41.9 µM | A498 35.2 µM | MDA-MB-435 25.6 µM | SK-OV-3 51.8 µM | CCRF-CEM 22.3 µM | NCI-H522 19.3 µM | Hs-578T 78.5 µM | UACC-62 36.1 µM | SNB-19 46.1 µM | IGROV-1 33.5 µM | HOP-62 34.8 µM | DU-145 45 µM

COc1ccc(-c2cc(-c3ccccc3)c3c(n2)-c2ccccc2NC(=O)C3)cc1
inactive: OVCAR-8 9.66 µM | MDA-N 30 µM | SF-268 23.7 µM | A549 49.4 µM | OVCAR-4 3.64 µM | BT-549 > 100 µM | NCI/ADR-RES 36.5 µM | A498 > 100 µM | MDA-MB-435 > 100 µM | UACC-257 > 100 µM | SK-OV-3 39.9 µM | Hs-578T 5.15 µM | UACC-62 98.2 µM | SNB-19 34.7 µM | IGROV-1 13.8 µM | MDA-MB-231 25.4 µM | HOP-62 36 µM | DU-145 > 100 µM

CCOP(=O)(O)CC1OC(CO)C(O)C1O (centres undefined)
inactive: OVCAR-8 > 100 µM | MDA-N > 100 µM | SF-268 > 100 µM | A549 > 100 µM | BT-549 > 100 µM | NCI/ADR-RES > 100 µM | UACC-257 > 100 µM | SK-OV-3 > 100 µM | CCRF-CEM > 100 µM | NCI-H522 > 100 µM | Hs-578T > 100 µM | UACC-62 > 100 µM | SNB-19 > 100 µM | IGROV-1 > 100 µM | MDA-MB-231 > 100 µM | HOP-62 > 100 µM | DU-145 > 100 µM

CC1(C)OCC(CO)(Nc2nc(N3CC3)nc(N3CC3)n2)CO1
inactive: OVCAR-8 11.3 µM | MDA-N 13.3 µM | SF-268 4.07 µM | A549 4.05 µM | OVCAR-4 18.8 µM | BT-549 26.1 µM | A498 10.2 µM | MDA-MB-435 19.5 µM | UACC-257 14.7 µM | SK-OV-3 5.78 µM | CCRF-CEM 1.16 µM | NCI-H522 13.2 µM | Hs-578T 19 µM | UACC-62 3.15 µM | SNB-19 11.2 µM | IGROV-1 20.6 µM | MDA-MB-231 > 10 µM | HOP-62 5.53 µM | DU-145 1.3 µM

O=C1/C(=C/C=C/c2ccccc2)N=C(c2ccccc2)N1c1ccc(S(=O)(=O)Nc2nccs2)cc1
inactive: OVCAR-8 29.3 µM | MDA-N 27.7 µM | SF-268 14 µM | A549 31.8 µM | OVCAR-4 30 µM | BT-549 19.8 µM | NCI/ADR-RES > 100 µM | A498 32.1 µM | MDA-MB-435 28.2 µM | UACC-257 34.6 µM | SK-OV-3 28.1 µM | CCRF-CEM 32.4 µM | NCI-H522 14.3 µM | Hs-578T 37.8 µM | UACC-62 18.2 µM | SNB-19 37.2 µM | IGROV-1 20.2 µM | HOP-62 39.3 µM | DU-145 37.8 µM

O=C1OC(c2ccc(O)c(Cl)c2)(c2ccc(O)c(Cl)c2)c2ccc(Br)c3cccc1c23.O=C1OC(c2ccc(O)c(Cl)c2)(c2ccc(O)c(Cl)c2)c2cccc3c(Br)ccc1c23
inactive: OVCAR-8 27.8 µM | MDA-N 21 µM | SF-268 14.2 µM | A549 18.8 µM | OVCAR-4 2.67 µM | BT-549 21.5 µM | NCI/ADR-RES 16.6 µM | A498 18.7 µM | MDA-MB-435 18 µM | UACC-257 19.5 µM | SK-OV-3 17.2 µM | CCRF-CEM 16.9 µM | Hs-578T 29.3 µM | UACC-62 12.4 µM | SNB-19 23.1 µM | IGROV-1 18.9 µM | MDA-MB-231 14.2 µM | HOP-62 21.5 µM | DU-145 23.7 µM

CC(=O)N(C)SCC(NC(=O)C(Cc1ccccc1)NC(=O)OCc1ccccc1)C(=O)NC(Cc1ccccc1)C(=O)NC(Cc1c[nH]c2ccccc12)C(=O)NC(CCCCNC(=O)OCc1ccccc1)C(=O)NC(C(=O)NC(CSN(C)C(C)=O)C(=O)NC(C(N)=O)C(C)OCc1ccccc1)C(C)OCc1ccccc1 (centres undefined) (Cbz-F[X30]FWK(Cbz)T(Bn)[X30]T(Bn)-NH2; configuration not given here)
inactive: OVCAR-8 > 100 µM | MDA-N > 100 µM | SF-268 > 100 µM | A549 > 100 µM | OVCAR-4 > 100 µM | BT-549 > 100 µM | NCI/ADR-RES > 100 µM | MDA-MB-435 > 100 µM | UACC-257 > 100 µM | SK-OV-3 1.63 µM | CCRF-CEM > 100 µM | Hs-578T > 100 µM | UACC-62 > 100 µM | SNB-19 > 100 µM | IGROV-1 > 100 µM | MDA-MB-231 35.3 µM | HOP-62 > 100 µM | DU-145 > 100 µM
